Data taken from patent EP0719267B1, “SECOND MESSENGER CELL SIGNALING INHIBITORS” (CELL THERAPEUTICS, INC., priority 1993, dated 1994).

Experiments:
[1] = system: murine mixed tumor lymophocyte culture (MTLC); experiment: Mixed tumor lymphocyte culture (MTLC), splenocytes with 2PK3; type: cell-based
Procedure: Figures 50A and 50B illustrate that compound no. 45 inhibits a murine mixed tumor lymophocyte culture (MTLC) and a human mixed leukocyte reaction (MLR). In the MTLC, splenocytes were stimulated (co-culture) with an alloantigen, B cell tumor target cell line (2PK3) in the presence or absence of compound no. 45. Cells were stimulated for 3 days, ^3H-TdR was added and the cells were harvested 4 hours later. Incorporation of ^3H-TdR was determined by liquid scintillation. Background counts were 1000-1200 CPM. For the human MLR, purified peripheral lymphocytes from two HLA disparate individuals were co-cultured for 6 days with or without compound no. 45. On the 7th day the cultures were pulsed with ^3HTdR for 24 hours and counted by scintillation.
In an assay related to the MTLC assay, cytokines levels were measured by ELISA from the supernatants of an MTLC culture. […] 45. Figures 60B and 60C illustrate that compound no.

[2] = system: IL-2 receptor beta (p70) subunit; experiment: IL-2 receptor beta subunit internalization in CT-6.1 cells (flow cytometry); type: cell-based, murine; details: 20 ng/ml IL-2
Procedure: In figure 55, inventive compound no. […] In this assay protocol, CT-6.1 cells were starved overnight and stimulated with 20 ng/ml IL-2. At various times following IL-2 stimulation, cells were rapidly suspended in ice cold PBS and stained using a fluoresceinated monoclonal recognizing the beta subunit of the IL-2 receptor and cell surface expression analyzed by flow cytometry. Figure 55 is a plot of mean fluorescence versus time (in minutes) following IL-2 addition, illustrating that IL-2r beta subunit was rapidly internalized following IL-2 addition with cell surface expression remaining low for 6 hours. Inventive compound no.

[3] = system: IL-2 (alpha chain CD25) receptor; experiment: IL-2 receptor expression on anti-CD3 stimulated splenocytes (flow cytometry); type: cell-based, mouse; details: anti-CD3 1 µg/ml, 24 hours, 1 µM
Procedure: This investigation illustrates IL-2 (alpha chain CD25) receptor expression on mouse splenoyctes. The IL-2 receptor is not expressed on resting T-cells, but is rapidly-induced by certain stimulants, e.g. antigen recognition or treatment with ConA or antibodies to CD3 (anti-CD3). IL-2-dependent proliferation requires IL-2 receptor expression. […] 49 (1 µM). Following overnight incubation, the splenocytes were stained with a fluoresceinated anti-IL-2 receptor antibody and fluorescence measured by flow cytometry. Figures 5A and 5B are frequency histograms of measurements for 20,000 cells per sample.
In another assay, inventive compound no. […] Murine splenocytes were activated for 24 hours with anti-CD3 (1 µg/ml), stained with a fluorescent antibody to CD25 and analyzed by flow cytometry.

[4] = system: human aortic smooth muscle cells (aortic SMC); experiment: Growth factor-induced proliferation of aortic smooth muscle cells; type: cell-based; details: 5 µM
Procedure: 58. One assay was used for investigating effects on PDGF-induced proliferation of human aortic smooth muscle cells (aortic SMC). Cells, purchased from a commercial supplier (Cell Systems, Inc., Seattle, WA), were cultured with various concentrations of PDGF-BB with and without addition of compound no. 58 (5 µM). […] 58 inhibited PDGF-induced proliferation even at high PDGF concentrations providing maximum proliferative stimulation. In addition, some cultures were treated 1 hour prior to PDGF stimulation with inventive compound no. 58. As shown, PDGF stimulated proliferation in this cell line. Addition of 5 µM of compound no. […] 58 were observed.
Another assay was used for investigating inhibitory effects of inventive compound no. 58 on either basic or acidic FGF-induced proliferation in human aortic smooth muscle cells (aortic SMC). Disregulated bFGF- or aFGF-induced proliferation is linked to SMC proliferation and neointimal occlusion in atherogenesis and restenosis and plays a role in autocrine and paracrine stimulation of tumor cells and tumor cell-induced angiogenesis. In this assay, cells were grown in reduced serum (0.5% fetal calf serum) for 24 hours prior to stimulating with various concentrations of […]. Cells were stimulated with various concentrations overnight of either aFGF or bFGF, adding 5µM of compound no. 58 in selected cultures. Compound no. […] Results shown in figure 20A (aFGF) and figure 20B (bFGF) illustrate the degree of inhibition.
Figures 65A-65F illustrate inhibition of proliferation in either human aortic or pulmonary smooth muscle cells (SMC) by inventive compound no. 58. Procedurally, cells were cultured in 0.5% serum containing medium 24 hours prior to stimulation with various concentrations of either PDGF (figs. 65A and 65B), acidic FGF (figs. 65C and 65D) or basic FGF (figs. 65E and 65F). Cells were stimulated for 24 hours prior to labeling with ^3H-TdR for 4 hours and harvested and counted by scintillation. Compound no. 58 was added 1 hour prior to stimulation at a concentration of 5 µM. Even at points of maximum stimulation of the growth factors, compound no. […] In addition cell number was assessed and those treated with compound no.

human TNFα = experiment: Whole blood ex vivo assay of TNF release (ELISA); type: cell-based; details: mouse TNFα and human IL-1α, 6 hours
Procedure: Figure 74 illustrates that inventive compound no. […] 58 using a human whole blood ex vivo assay. In this assay, human whole blood was stimulated with mouse TNFα and human IL-1α with or without various concentrations of inventive compound no. 58. After 6 hours, the plasma was analyzed for human TNFα levels using a commercial ELISA.

[5] = system: human umbilical vein endothelial cell line (HUVEC); experiment: VEGF-induced proliferation of HUVEC; type: cell-based
Procedure: This example illustrates an investigation of inhibitory effects of compound no. 58 on Vascular Endothelial Growth Factor (VEGF)-induced proliferation in a human umbilical vein endothelial cell line (HUVEC). In this assay procedure, cells were grown in reduced serum (0.5% fetal calf serum) for 24 hours prior to stimulating with various concentrations of VEGF. […] Compound no.
As illustrated in figures 67A and 67B, inventive compound no. 58 inhibited VEGF-induced proliferation in HUVEC and EGF-induced proliferation in Swiss/3T3 cells, respectively. Procedurally, HUVEC were placed in 0.5% serum containing medium prior to stimulation with various concentrations of VEGF, with or without inventive compound no. 58 (5 µM). Twenty four hours later the cells were pulsed with ^3H-TdR and 4 hours later harvested and counted by scintillation. The IC50 for inhibition was approximately 50-100 nM. Swiss 3T3 cells were stimulated with 20 ng/ml EGF and 24 hours later harvested and counted by scintillation.

Balb/3T3 cells = experiment: Cytotoxicity to PDGF-stimulated Balb/3T3 cells (BCECF); type: cell-based; details: fig. 66B
Procedure: LD50 values were determined using a cytotoxicity assay, as in Example 32. In these assays, Balb/3T3 cells, stimulated with PDGF and treated with one of the above inventive compounds in a manner identical to the tritiated thymidine procedure above, were incubated instead with a viable dye BCECF, a fluorescent dye. Fluorescence was measured using a fluorescent plate reader.

`CCCCCCCCNCC(O)CCCCCCCCCn1c(=O)c2c(ncn2C)n(C)c1=O` (stereo not drawn) [compound no. 45] was tested, and the IFN-γ release ([1]; ELISA of supernatants) was “inhibited IFN-γ release”, the “IL-2 or TNFα release” value ([1]; ELISA of supernatants) was “did not inhibit either IL-2 or TNFα release from the MTLC” and the IC50 ([1]; Mus musculus, 72 h, 3 days) was roughly 500 nM. For the same compound, the overall proliferation ([1]; fig. 60A) was “inhibition of overall proliferation”, the “IL-2 receptor beta subunit internalization” value [2] was “did not inhibit this receptor internalization activity” and the CD-25 receptor upregulation [3] was “did not inhibit CD-25 (p55) receptor upregulation by anti-CD3”.
In the case of `COc1cc(CNCC(O)CCCCCCCCCn2c(=O)c3c(ncn3C)n(C)c2=O)cc(OC)c1OC` (stereo not drawn) [compound no. 58, 1-[11-(3,4,5-Trimethoxybenzylamino)-10-hydroxyundecyl]-3,7-dimethylxanthine], the “inhibition of PDGF-induced proliferation” value [4] is reported as “blocked PDGF-stimulated proliferation”, the “inhibition of aFGF- and bFGF-induced proliferation” value [4] is reported as “a potent inhibitor of both aFGF- and bFGF-induced proliferation” and the toxic effects [4] is reported as “No toxic effects”. The “inhibition of proliferation at maximum stimulation by PDGF, acidic FGF or basic FGF” value ([4]; added 1 hour prior) was “completely inhibited cellular proliferation in both aortic and pulmonary SMC”, the “cell number following growth factor stimulation” value ([4]; aortic and pulmonary SMC) was “showed no increase in cell number following growth factor stimulation” and the TNF release (human TNFα) was “inhibited TNF release”. For the same compound, the “inhibition of VEGF-induced proliferation” value ([5]; 5 µM) was “inhibited VEGF-induced proliferation at all concentrations of VEGF tested”, the IC50 ([5]; Homo sapiens, HUVEC, VEGF, 0.5% serum) was 50 to 100 nM and the cytotoxicity (Balb/3T3 cells) was “not cytotoxic to Balb/3T3 cells”.
